Patent US6413245B1, “Sub-tenon drug delivery” (Alcon Universal Ltd., priority 1999, dated 2002)

Experiment: Retinal concentration of angiostatic steroid after sub-Tenon drug depot in rabbit eyes
Assay type: in vivo
Settings: drug depot on outer surface of sclera, slightly posterior of the equator, measured the day after the injection, New Zealand White rabbits
From the text: Sclera 16 and Tenon's capsule 34 define the exterior surface of the globe of eye 10. For treatment of ARMD, CNV, retinopathies, retinitis, uveitis, cystoid macular edema (CME), glaucoma, and other diseases or conditions of posterior segment 26, it is preferable to dispose a depot 38 of a specific quantity of an ophthalmically acceptable pharmaceutically active agent directly on the outer surface of sclera 16 and below Tenon's capsule 34. In addition, in cases of ARMD and CME it is most preferable to dispose depot 38 directly on the outer surface of sclera 16, below Tenon's capsule 34, and generally above macula 30. In a study using New Zealand White rabbits, a drug depot of 4,9(11)-Pregnadien-17α,21-diol-3,20-dione-21-acetate, an angiostatic steroid available from Steraloids, Inc. of Wilton, New Hampshire, was disposed directly on the outer surface of the sclera, below the Tenon's capsule, and slightly posterior of the equator of the rabbit eyes. […] Given the fact that the Tenon's capsule of a New Zealand White rabbit is very thin, these beneficial results are highly unexpected. It is important to note that Tenon's capsule 34 of human eye 10 is also very thin. […]

Structure (SMILES): CC(=O)OCC(=O)[C@@]1(O)CC[C@H]2[C@@H]3CCC4=CC(=O)CC[C@]4(C)C3=CC[C@@]21C [4,9(11)-Pregnadien-17α,21-diol-3,20-dione-21-acetate]
- concentration of the angiostatic steroid, averaged over the entire retina, relative to a depot located below the conjunctiva but above the Tenon's capsule: about ten times greater
